Source: paper PMC9769694, “Discovery of Two Inhibitors of the Type IV Pilus Assembly ATPase PilB as Potential Antivirulence Compounds” (Microbiology Spectrum, 2022)

Legend:
Conditions in all cases: data not shown
CtPilB = CtPilB (Chloracidobacterium thermophilum, UniProt G2LDI3); test: Malachite green ATPase assay, dose response (benchtop); assay type: biochemical
Protocol: The full-length CtPilB and the CtPilBΔN variant (with the first 139 residues at the N terminus truncated) were purified as preciously described ([29]). The HTS was conducted using 384-well microplates (Greiner, cat no. 781101). Each microwell for the screen contained a 15-μL reaction mixture consisting of 75 nM CtPilB, 0.5 mM ATP, 20 μM of a library compound, and 2% DMSO in activity buffer (50 mM N-tris(hydroxymethyl)methyl-3-aminopropanesulfonic acid [TAPS], 50 mM Tris, 75 mM KCl, 50 mM sodium acetate, 5 mM MgCl2, 50 mM ZnCl2 [pH 8.7]) ([29]). Reaction mixtures were incubated at 55°C for 10 min and transferred to ice for 5 min to stop the enzymatic reaction. MG reagent (50 μL) was added to each well for color development. After a 15-minute incubation, 5 μL of 34% (wt/vol) sodium-citrate (MP Chemicals) was added and the plate was mixed by shaking ([28], [29]). Absorbance at 620 nm (A620) was measured using a SpectraMax M5 microplate reader at room temperature. The HTS was performed at the Virginia Tech Center for Drug Discovery (VTCDD) Screening Laboratory.
The effects of inhibitors on the ATPase activity of CtPilB and CtPilBΔN and the binding of MANT-ATP were determined as described previously ([28], [29]). Stock solutions were prepared by dissolving benserazide hydrochloride (Alfa Aesar) or levodopa (Spectrum Chemical Mfg. Corp.) in dimethyl sulfoxide (DMSO; Fisher Biotech). Next, 10× working stocks for given concentrations of an inhibitor were freshly prepared before their use in an experiment. GraphPad Prism v7.04 was used for curve fitting and Student’s t test was used for statistical analysis.

[1] = tested on: A. nosocomialis twitching motility; test: Twitching motility, crystal violet stained twitching area; assay type: cell-based, Acinetobacter nosocomialis
From the text: The inhibitors may thus interact with conserved features of the PilB ATPase family. A. nosocomialis PilB ([19]), whose N terminus is not similar to the MshEN domain (data not shown), shares ~53% identity and ~74% homology with MxPilB and MC3PilB in the ATPase domain (Fig. S1). We analyzed whether benserazide and levodopa could impact the T4P-powered twitching motility ([19], [44]) of A. nosocomialis (Fig. 7), an opportunistic pathogen in the Acinetobacter calcoaceticus-Acinetobacter baumannii (ACB) complex ([45]). As shown in Fig. 7A and B and Fig. S7, benserazide and levodopa impede the twitching motility of WT A. nosocomialis in a concentration-dependent manner.
FIG 7 Benserazide and levodopa inhibit Acinetobacter nosocomialis twitching motility and biofilm formation. (A and B) Twitching motility is correlated with the twitching area (cm^2) of the A. nosocomialis wild-type (WT) strain in the presence of (A) benserazide or (B) levodopa, with the control (no inhibitor) normalized to 1. Data are from 3 independent experiments, each performed in triplicates and represented by dots of the same color. (C and D) Biofilms formed by A. nosocomialis with (C) benserazide or (D) levodopa were analyzed by a microplate assay with crystal violet (CV) staining. Results from three independent experiments, each performed in quadruplicates and represented by dots of the same color, are shown. Horizontal lines indicate overall averages, and asterisks (*) signify that values at the indicated concentration are statistically different from those of the control (P < 0.05).
The A. nosocomialis wild-type M2 strain and an isogenic pilA deletion (ΔpilA) mutant ([19], [46]) were used in this study. They were grown and maintained using MacConkey medium at 37°C. The twitching motility of the M2 strain of A. nosocomialis was analyzed with 1% crystal violet (CV) for staining, and twitching areas were used as measures of motility as previously described ([46]). These motility assays were conducted in triplicates and the stained area of the ΔpilA mutant was subtracted from that of the WT for data analysis. A. nosocomialis biofilm formation was analyzed using microplates and CV staining as previously described ([53], [54]). The biofilm assays were conducted in quadruplicate in MacConkey medium with tissue culture-treated microtiter plates (Falcon). CV absorbance (Acv) was measured at 590 nm using Infinite M200 PRO in clear polystyrene 96-well microplates (ExtraGene). Absorbance for each well was read 16 times using Multiple Reads with the average as the final Acv value. Readings from control wells without bacteria were subtracted for normalization. Statistical differences were determined using a Student’s t test.

M. xanthus S motility = test: T4P-mediated social (S) motility, colony expansion on soft agar; assay type: cell-based, Myxococcus xanthus
From the text: Benserazide and levodopa were examined to determine whether they could impact the T4P assembly function of PilB in vivo using M. xanthus as the model bacterium ([28]). […] Three M. xanthus strains were used for these experiments. Strain DK10416 lacks S motility because it is a pilB deletion (ΔpilB) mutant ([40]). The other two strains both assemble T4P and are proficient in S motility ([30]). Strain YZ1674 produces the wild-type (WT) M. xanthus PilB (MxPilB). YZ2232 expresses MC3PilB, a PilB chimera with the N terminus of MxPilB fused to the C-terminal ATPase domain of CtPilB ([30]). The PilB ATPase domains of MxPilB and MC3PilB are highly similar, with 66% shared identity and 77% similarity (Fig. S1).
FIG 5 Benserazide and levodopa inhibit T4P-mediated social (S) motility in Myxococcus xanthus. Expansion rates (cm/day) of the MxPilB (YZ1674) and the MC3PilB (YZ2232) strains on soft agar plates by S motility in the presence of (A and C) benserazide and (B and D) levodopa after 5 days of incubation. Results from three independent experiments are shown, each performed in quintuplicates with data points represented by dots of the same color. Horizontal black lines represent overall averages. Expansion rates were normalized by subtracting that of the ΔpilB strain, which has no S motility (also see Fig. S4). Asterisks (*) indicate that the values at the indicated concentrations are statistically different (P < 0.05) from those of the no-inhibitor control.
M. xanthus was grown and maintained at 32°C in Casitone-yeast extract (CYE) medium ([49]). Motility assays were conducted with strains DK10416 (ΔpilB) ([40]), YZ1674 (ΔpilB att::MxpilB) ([50]), and YZ2232 (ΔpilB att::MC3pilB) ([30], [51]) as previously described ([28]). One modification was that 10% India ink was included in the cell suspension to mark the initial spot on agar plates. All experiments were conducted in quintuplicates and the diameter of the initial spot, as marked by India ink, was subtracted for data analysis.

Chain of CtPilB (G2LDI3 entry or part of it): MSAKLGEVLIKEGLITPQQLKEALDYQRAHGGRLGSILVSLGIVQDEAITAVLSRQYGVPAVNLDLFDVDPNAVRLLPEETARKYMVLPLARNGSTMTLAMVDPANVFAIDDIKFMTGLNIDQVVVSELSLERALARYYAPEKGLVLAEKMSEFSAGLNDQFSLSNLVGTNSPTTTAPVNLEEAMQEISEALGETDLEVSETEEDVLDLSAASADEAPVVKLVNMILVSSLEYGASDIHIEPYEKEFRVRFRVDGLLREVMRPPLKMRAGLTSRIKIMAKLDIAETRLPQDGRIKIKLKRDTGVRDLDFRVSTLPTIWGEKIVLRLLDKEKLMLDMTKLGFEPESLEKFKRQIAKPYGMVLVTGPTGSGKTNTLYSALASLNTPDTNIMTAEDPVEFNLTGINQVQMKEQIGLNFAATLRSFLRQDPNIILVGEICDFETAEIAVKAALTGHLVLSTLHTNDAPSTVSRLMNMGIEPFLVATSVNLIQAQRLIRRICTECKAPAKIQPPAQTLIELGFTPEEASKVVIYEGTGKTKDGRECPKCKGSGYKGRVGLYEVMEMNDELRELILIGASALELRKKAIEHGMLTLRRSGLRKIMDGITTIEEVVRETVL

N[C@@H](Cc1ccccc1)C(=O)O [phenylalanine]
no inhibitory effect: inhibitory effect on CtPilB in vitro (CtPilB) | inhibitory effect on motility of A. nosocomialis in vivo [1] | inhibitory effect on motility of M. xanthus in vivo (M. xanthus S motility)

N[C@@H](Cc1ccc(O)cc1)C(=O)O [tyrosine, 4-monohydroxyphenylalanine]
no inhibitory effect: inhibitory effect on CtPilB in vitro (CtPilB) | inhibitory effect on motility of A. nosocomialis in vivo [1] | inhibitory effect on motility of M. xanthus in vivo (M. xanthus S motility)
